According to PubChem BioAssay (NCI):
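At the GI50, growth is halved. TGI marks complete inhibition of growth.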

Legend:
Assay in all cases: NCI tumour cell line growth inhibition, 384-well format
MDA-MB-435 melanoma = tested on: MDA-MB-435 melanoma
UACC-257 melanoma = tested on: UACC-257 melanoma
SNB-19 CNS = tested on: SNB-19 CNS
NCI-H23 lung = tested on: NCI-H23 lung
HCT-116 colon = tested on: HCT-116 colon
BT-549 breast = tested on: BT-549 breast
SF-539 CNS = tested on: SF-539 CNS
HOP-62 NSCLC = tested on: HOP-62 NSCLC
OVCAR-3 ovarian = tested on: OVCAR-3 ovarian
NCI-H226 lung = tested on: NCI-H226 lung
UO-31 renal = tested on: UO-31 renal
CCRF-CEM leukemia = tested on: CCRF-CEM leukemia
SW-620 colon = tested on: SW-620 colon
HL-60(TB) leukemia = tested on: HL-60(TB) leukemia
ACHN renal = tested on: ACHN renal
SR leukemia = tested on: SR leukemia
NCI/ADR-RES ovarian = tested on: NCI/ADR-RES ovarian
786-0 renal = tested on: 786-0 renal
A498 renal = tested on: A498 renal
OVCAR-4 ovarian = tested on: OVCAR-4 ovarian
SK-MEL-5 melanoma = tested on: SK-MEL-5 melanoma
MDA-MB-468 breast = tested on: MDA-MB-468 breast
HOP-92 NSCLC = tested on: HOP-92 NSCLC
NCI-H460 NSCLC = tested on: NCI-H460 NSCLC
SF-268 CNS = tested on: SF-268 CNS
DU-145 prostate = tested on: DU-145 prostate
SK-OV-3 ovarian = tested on: SK-OV-3 ovarian
SN12C renal = tested on: SN12C renal
HCT-15 colon = tested on: HCT-15 colon
SK-MEL-28 melanoma = tested on: SK-MEL-28 melanoma
K-562 leukemia = tested on: K-562 leukemia
MOLT-4 leukemia = tested on: MOLT-4 leukemia
TK-10 renal = tested on: TK-10 renal
MDA-MB-231 breast = tested on: MDA-MB-231 breast
LOX IMVI melanoma = tested on: LOX IMVI melanoma
CAKI-1 renal = tested on: CAKI-1 renal
COLO 205 colon = tested on: COLO 205 colon
HCC-2998 colon = tested on: HCC-2998 colon
T-47D breast = tested on: T-47D breast
NCI-H522 lung = tested on: NCI-H522 lung
NCI-H322M lung = tested on: NCI-H322M lung
OVCAR-5 ovarian = tested on: OVCAR-5 ovarian
M14 melanoma = tested on: M14 melanoma
SF-295 CNS = tested on: SF-295 CNS
RXF 393 renal = tested on: RXF 393 renal
MCF7 breast = tested on: MCF7 breast
RPMI-8226 leukemia = tested on: RPMI-8226 leukemia
SK-MEL-2 melanoma = tested on: SK-MEL-2 melanoma
MALME-3M melanoma = tested on: MALME-3M melanoma
OVCAR-8 ovarian = tested on: OVCAR-8 ovarian
A549 NSCLC = tested on: A549 NSCLC
U251 glioblastoma = tested on: U251 glioblastoma
IGROV1 ovarian = tested on: IGROV1 ovarian

Q: With `C=C1C[C@@H]2CC[C@@]34C[C@H]5O[C@H]6[C@@H](O3)[C@H]3O[C@H](CC[C@@H]3O[C@H]6[C@@H]5O4)CC(=O)C[C@@H]3[C@@H](OC)[C@@H](C[C@H](O)CN)O[C@H]3C[C@H]3O[C@@H](CC[C@@H]1O2)C[C@@H](C)C3=C` as the compound, how does the GI50 (MDA-MB-435 melanoma) read?
A: < 10 nM

Q: And the TGI (MDA-MB-435 melanoma)?
A: < 10 nM

Q: And the GI50 (UACC-257 melanoma)?
A: < 10 nM

Q: And the TGI (UACC-257 melanoma)?
A: 85300 nM

Q: What about the GI50 (SNB-19 CNS) of the same compound?
A: < 10 nM

Q: What about the TGI (SNB-19 CNS) of the same compound?
A: 41.2 nM

Q: What about the GI50 (NCI-H23 lung) of the same compound?
A: < 10 nM

Q: And the TGI (NCI-H23 lung)?
A: < 10 nM

Q: And the GI50 (HCT-116 colon)?
A: < 10 nM

Q: What about the TGI (HCT-116 colon) of the same compound?
A: 219 nM

Q: What about the GI50 (BT-549 breast) of the same compound?
A: < 10 nM

Q: What about the TGI (BT-549 breast) of the same compound?
A: < 10 nM

Q: And the GI50 (SF-539 CNS)?
A: < 10 nM

Q: And the TGI (SF-539 CNS)?
A: < 10 nM

Q: And the GI50 (HOP-62 NSCLC)?
A: < 10 nM

Q: And the TGI (HOP-62 NSCLC)?
A: 3340 nM

Q: What about the GI50 (OVCAR-3 ovarian) of the same compound?
A: < 10 nM

Q: What about the TGI (OVCAR-3 ovarian) of the same compound?
A: < 10 nM

Q: And the GI50 (NCI-H226 lung)?
A: < 10 nM

Q: And the TGI (NCI-H226 lung)?
A: 206 nM

Q: What about the GI50 (UO-31 renal) of the same compound?
A: 225 nM

Q: What about the TGI (UO-31 renal) of the same compound?
A: > 100000 nM

Q: What about the GI50 (CCRF-CEM leukemia) of the same compound?
A: < 10 nM

Q: And the TGI (CCRF-CEM leukemia)?
A: < 10 nM

Q: And the GI50 (SW-620 colon)?
A: < 10 nM

Q: What about the TGI (SW-620 colon) of the same compound?
A: > 100000 nM

Q: And the GI50 (HL-60(TB) leukemia)?
A: < 10 nM

Q: What about the TGI (HL-60(TB) leukemia) of the same compound?
A: < 10 nM

Q: What about the GI50 (ACHN renal) of the same compound?
A: 73.3 nM

Q: What about the TGI (ACHN renal) of the same compound?
A: > 100000 nM

Q: And the GI50 (SR leukemia)?
A: < 10 nM

Q: And the TGI (SR leukemia)?
A: < 10 nM

Q: What about the GI50 (NCI/ADR-RES ovarian) of the same compound?
A: 1900 nM

Q: And the TGI (NCI/ADR-RES ovarian)?
A: 5950 nM

Q: And the GI50 ([…]-0 renal)?
A: < 10 nM

Q: What about the TGI (786-0 renal) of the same compound?
A: 389 nM

Q: What about the GI50 (A498 renal) of the same compound?
A: < 10 nM

Q: What about the TGI (A498 renal) of the same compound?
A: 1100 nM

Q: What about the GI50 (OVCAR-4 ovarian) of the same compound?
A: < 10 nM

Q: What about the TGI (OVCAR-4 ovarian) of the same compound?
A: 974 nM

Q: And the GI50 (SK-MEL-5 melanoma)?
A: < 10 nM

Q: What about the TGI (SK-MEL-5 melanoma) of the same compound?
A: < 10 nM

Q: And the GI50 (MDA-MB-468 breast)?
A: < 10 nM

Q: And the TGI (MDA-MB-468 breast)?
A: < 10 nM

Q: And the GI50 (HOP-92 NSCLC)?
A: < 10 nM

Q: What about the TGI (HOP-92 NSCLC) of the same compound?
A: 52.8 nM

Q: And the GI50 (NCI-H460 NSCLC)?
A: < 10 nM

Q: What about the TGI (NCI-H460 NSCLC) of the same compound?
A: < 10 nM

Q: What about the GI50 (SF-268 CNS) of the same compound?
A: < 10 nM

Q: And the TGI (SF-268 CNS)?
A: 40 nM

Q: What about the GI50 (DU-145 prostate) of the same compound?
A: < 10 nM

Q: And the TGI (DU-145 prostate)?
A: < 10 nM

Q: And the GI50 (SK-OV-3 ovarian)?
A: < 10 nM

Q: And the TGI (SK-OV-3 ovarian)?
A: 84.9 nM

Q: What about the GI50 (SN12C renal) of the same compound?
A: < 10 nM

Q: What about the TGI (SN12C renal) of the same compound?
A: > 100000 nM

Q: And the GI50 (HCT-15 colon)?
A: 69 nM

Q: And the TGI (HCT-15 colon)?
A: 3500 nM

Q: What about the GI50 (SK-MEL-28 melanoma) of the same compound?
A: < 10 nM

Q: What about the TGI (SK-MEL-28 melanoma) of the same compound?
A: > 100000 nM

Q: What about the GI50 (K-562 leukemia) of the same compound?
A: < 10 nM

Q: And the TGI (K-562 leukemia)?
A: 12.9 nM

Q: And the GI50 (MOLT-4 leukemia)?
A: < 10 nM

Q: What about the TGI (MOLT-4 leukemia) of the same compound?
A: < 10 nM

Q: What about the GI50 (TK-10 renal) of the same compound?
A: 52.8 nM

Q: And the TGI (TK-10 renal)?
A: > 100000 nM

Q: And the GI50 (MDA-MB-231 breast)?
A: < 10 nM

Q: What about the TGI (MDA-MB-231 breast) of the same compound?
A: 165 nM

Q: What about the GI50 (LOX IMVI melanoma) of the same compound?
A: < 10 nM

Q: And the TGI (LOX IMVI melanoma)?
A: 43.3 nM

Q: And the GI50 (CAKI-1 renal)?
A: < 10 nM

Q: And the TGI (CAKI-1 renal)?
A: > 100000 nM

Q: What about the GI50 (COLO 205 colon) of the same compound?
A: < 10 nM

Q: And the TGI (COLO 205 colon)?
A: 16.6 nM

Q: And the GI50 (HCC-2998 colon)?
A: < 10 nM

Q: And the TGI (HCC-2998 colon)?
A: < 10 nM

Q: What about the GI50 (T-47D breast) of the same compound?
A: < 10 nM

Q: What about the TGI (T-47D breast) of the same compound?
A: > 100000 nM

Q: And the GI50 (NCI-H522 lung)?
A: < 10 nM

Q: What about the TGI (NCI-H522 lung) of the same compound?
A: < 10 nM

Q: And the GI50 (NCI-H322M lung)?
A: < 10 nM

Q: What about the TGI (NCI-H322M lung) of the same compound?
A: > 100000 nM

Q: What about the GI50 (OVCAR-5 ovarian) of the same compound?
A: < 10 nM

Q: And the TGI (OVCAR-5 ovarian)?
A: > 100000 nM

Q: And the GI50 (M14 melanoma)?
A: < 10 nM

Q: What about the TGI (M14 melanoma) of the same compound?
A: 2720 nM

Q: And the GI50 (SF-295 CNS)?
A: 22.9 nM

Q: And the TGI (SF-295 CNS)?
A: 246 nM

Q: And the GI50 (RXF 393 renal)?
A: < 10 nM

Q: What about the TGI (RXF 393 renal) of the same compound?
A: < 10 nM

Q: And the GI50 (MCF7 breast)?
A: < 10 nM

Q: And the TGI (MCF7 breast)?
A: 596 nM

Q: And the GI50 (RPMI-8226 leukemia)?
A: < 10 nM

Q: And the TGI (RPMI-8226 leukemia)?
A: < 10 nM

Q: What about the GI50 (SK-MEL-2 melanoma) of the same compound?
A: < 10 nM

Q: What about the TGI (SK-MEL-2 melanoma) of the same compound?
A: < 10 nM

Q: What about the GI50 (MALME-3M melanoma) of the same compound?
A: < 10 nM

Q: What about the TGI (MALME-3M melanoma) of the same compound?
A: > 100000 nM

Q: And the GI50 (OVCAR-8 ovarian)?
A: < 10 nM

Q: And the TGI (OVCAR-8 ovarian)?
A: 27.6 nM

Q: And the GI50 (A549 NSCLC)?
A: < 10 nM

Q: And the TGI (A549 NSCLC)?
A: 186 nM

Q: And the GI50 (U251 glioblastoma)?
A: < 10 nM

Q: What about the TGI (U251 glioblastoma) of the same compound?
A: 14.1 nM

Q: What about the GI50 (IGROV1 ovarian) of the same compound?
A: < 10 nM

Q: And the TGI (IGROV1 ovarian)?
A: > 100000 nM
